Measurements: patent publication US11357745B2, “Methods and materials for treating cytokine release syndrome” (Mayo Foundation for Medical Education and Research, priority 2018, dated 2022)
Values belong to the molecule of their own block, whether it stands above or below them.

How the values were obtained:
[1] = system: human myeloma cell lines (HMCLs); test: MTT assay across 10 human myeloma cell lines, compared with receptor surface expression by flow cytometry; type: cell-based
Source text: Surface expression of IL-6Rα, IL-6ST and CD44 was quantified using IL-6Rα-PE (clone UV4, Biolegend), IL-6ST-APC (2E1B02, Biolegend) and CD44-BV711 (IM7, Biolegend), and compared to isotype or unstained control.

RPMI [2] = test: MTT assay, metformin in RPMI myeloma cells; type: cell-based; details: Homo sapiens, 72 hours, Compusyn, read-out: metformin required to achieve 50% cell death/growth inhibition (IC50)
Experimental: (§1) Data is presented as heat map intensity corresponding to the level of expression. (B) HMCLs were treated with different doses of metformin for 72 hours and relative proliferation compared to vehicle control was calculated using MTT assay. Data is presented as IC50 for different cell lines and IC50 was calculated using Compusyn software (n=6). (C) & (D) HMCLs MM1S, RPMI, and U266 were treated with vehicle control (DMSO) or metformin 10 mM for 72 hours. (C) For apoptosis assay, cells were suspended in Annexin V buffer and stained with Annexin V for 30 minutes. Propidium iodide was added 10 minutes prior to data acquisition by flow cytometry. (D) For cell cycle assay, BrdU was added and incubated for 4 hours. Cells were fixed, permeabilized and stained with Anti-BrdU antibody for 30 minutes. 7AAD was added 10 minutes to samples before data acquisition by flow cytometry. The data were acquired on BD Fortessa and analyzed with flowjo V10.
(§2) IC50 was calculated using Compusyn software.

KMS12PE = test: MTT assay, metformin in KMS12PE myeloma cells; type: cell-based; details: Homo sapiens, KMS-12-PE, 72 hours, Compusyn, read-out: metformin required to achieve 50% cell death/growth inhibition (IC50)
Experimental: as §1, §2

JJN3 = test: MTT assay, metformin in JJN3 myeloma cells; type: cell-based; details: Homo sapiens, JJN-3, JJN3, 72 hours, Compusyn, read-out: metformin required for 50% cell death/growth inhibition (IC50)
Experimental: as §1, §2

ALMC1 and ALMC2 = test: MTT assay in primary amyloidosis (AL) cell lines; type: cell-based; details: ALMC2 high, ALMC1 low IL-6Rα expresser
Experimental: (3-(4,5-Dimethylthiazol-2-5-Diphenyltetrazolium Bromide (MTT) (Thermo Fisher Scientific, MA, USA) was dissolved in PBS to make 12 mM stock solution. Cells were seeded at 10,000 cells in 50 μl complete medium. Drugs, cytokines and antibodies were added at indicated doses in 50 μl complete medium. Cells were incubated for 72 hours for HMCLs and 48 hours for primary myeloma cells in presence of vehicle control, or metformin (1 mM, 5 mM, 10 mM, 20 mM, 40 mM, and 80 mM). MTT (10 μl) was added to each well and incubated for an additional 2 hours. Lysis buffer (100 μl) was added to each well and absorbance was read at 570 nm.

RPMI [3] = test: Annexin V / propidium iodide apoptosis assay, RPMI; type: cell-based, human; details: metformin 10 mM, 72 hours, Annexin V/PI
Experimental: as §1, with “Cells were fixed, permeabilized and stained with Anti-BrdU antibody for 30 minutes. 7AAD was added 10 minutes to samples before data acquisition by flow cytometry.” left out
(§3) Cell surface expression of IL-6Rα, IL-6ST, and CD44 was quantified using the fluorescently labeled antibodies anti-IL6R-PE (UV4, Biolegend), anti-IL6ST-APC (2E1B02, Biolegend) and anti-CD44-BV711 (IM7, Biolegend), and compared with isotype control. BrdU labeling assay (Phase-Flow™, Biolegend) was performed according to the manufacturer's protocol to quantify cell cycle. […] For apoptosis assay, the cells were treated with metformin for 72 hours and quantified with Annexin V (Biolegend). […] The data were analyzed using flowJo vs10.4.2 (Flowjo LLC, USA). […]

U266 [4] = test: Annexin V / propidium iodide apoptosis assay, U266; type: cell-based, human; details: U266, metformin 10 mM, 72 hours, Annexin V/PI
Experimental: as §1, with “Cells were fixed, permeabilized and stained with Anti-BrdU antibody for 30 minutes. 7AAD was added 10 minutes to samples before data acquisition by flow cytometry.” left out
as §3

MM1S [5] = test: Annexin V / propidium iodide apoptosis assay, MM1S; type: cell-based, human; details: metformin 10 mM, 72 hours, Annexin V/PI
Experimental: as §1, with “Cells were fixed, permeabilized and stained with Anti-BrdU antibody for 30 minutes. 7AAD was added 10 minutes to samples before data acquisition by flow cytometry.” left out
as §3

RPMI [6] = test: BrdU cell cycle assay, RPMI; type: cell-based, human; details: metformin 10 mM, 72 hours, from 53% without metformin
Experimental: as §1, with “Cells were fixed, permeabilized and stained with Anti-BrdU antibody for 30 minutes. 7AAD was added 10 minutes to samples before data acquisition by flow cytometry.” left out
as §3

U266 [7] = test: BrdU cell cycle assay, U266; type: cell-based, human; details: U266, metformin 10 mM, 72 hours, from 35% without metformin
Experimental: as §1, with “Cells were fixed, permeabilized and stained with Anti-BrdU antibody for 30 minutes. 7AAD was added 10 minutes to samples before data acquisition by flow cytometry.” left out
as §3

MM1S [8] = test: BrdU cell cycle assay, MM1S; type: cell-based, human; details: metformin 10 mM, 72 hours, from 34% without metformin
Experimental: as §1, with “Cells were fixed, permeabilized and stained with Anti-BrdU antibody for 30 minutes. 7AAD was added 10 minutes to samples before data acquisition by flow cytometry.” left out
as §3

RPMI IL-6Rα knock-downs = test: MTT assay in RPMI IL-6Rα knock-down cells; type: cell-based, human; details: n=6
Experimental: as §2
pGFP-C-shLenti vectors (4 shRNA targeting IL-6Rα and 1 scramble control) were purchased from Origene. Lentiviral particles were generated in HEK293T cells using pMD2.G (Addgene) and psPAX2 (Addgene). HMCLs were transduced with lentiviral vector particles in the presence of Polybrene (Millipore). Stable cell lines were generated after selecting for GFP positive cells with flow sorting and treatment with puromycin. Decreased expression of IL-6Rα compared to scrambled control was confirmed with qPCR and flow cytometer.

[9] = system: JJN3 engineered to over-express IL-6Rα; test: MTT assay in JJN3 cells over-expressing IL-6Rα; type: cell-based, human; details: n=6
Experimental: Ten different HMCLs were treated with metformin (0, 1 mM, 5 mM, 10 mM, 20 mM, 40 mM, and 80 mM) for 72 hours. The total numbers of live cells (metabolically active) were estimated using MTT assay. Relative proliferation was calculated by normalizing absorbance value with that obtained for vehicle control. IC50 was calculated using Compusyn software. […] (D) JJN3 IL-6Rα over-expressing cells were created using IL-6R cDNA expressing vector. Increased expression of IL-6Rα was confirmed by flow cytometry. (E) The sensitivity to metformin (IC50) was calculated using the MTT assay for cells transduced with the shRNA scrambled control or IL-6Rα KDs (n=6). […] (F) Metformin IC50 was calculated using MTT assay for JJN3 control and IL-6Rα over-expresser (n=6).
(3-(4,5-Dimethylthiazol-2-5-Diphenyltetrazolium Bromide (MTT) (ThermoFisher Scientific, MA, USA) was dissolved in PBS to make 12 mM stock solution. Cells were seeded at 10,000 cells in 50 μL complete medium. Drugs, cytokines and antibodies were added at indicated doses in 50 μL complete medium. HMCLs were incubated for 72 hours while primary myeloma cells were incubated for 48 hours in presence of vehicle control, metformin (1 mM, 5 mM, 10 mM, 20 mM, 40 mM and 80 mM). MTT (10 μL) was added to each well and incubated for an additional 2 hours. Lysis buffer (100 μL) was added to each well and absorbance was read at 570 nm. […]

IL-6Rα [10] = test: Flow cytometry, cell surface IL-6Rα in HMCLs; type: cell-based, human; details: RPMI, ANBL6, U266, MM1S, JJN3; metformin 10 mM, 72 hours
Experimental: (§4) RPMI, ANBL6, U266, MM1S, and JJN3 were treated with metformin 10 mM for 72 hours and median fluorescence intensity for cell surface expression of (A) IL-6Rα, (B) IL-6-Rβ and (C) CD44 was quantified using flow cytometry. Vehicle (open bar) and metformin 10 mM (shaded bar), n=3. (D) RPMI and ANBL6 cells were cultured either in the presence of vehicle control or metformin 10 mM for 72 hours. Soluble IL-6Rα was quantified in media supernatant using ELISA kit. Vehicle (open bar) and metformin 10 mM (shaded bar), n=6. […] (E) RPMI and ANBL6 cells were cultured either in presence of vehicle control or metformin 10 mM for 72 hours. mRNA expression of IL-6Rα was quantified using qPCR TaqMan assay. Vehicle (open bar) and metformin 10 mM (shaded bar), n=6.
(§5) Surface expression of IL-6Rα, IL-6ST and CD44 was quantified using IL-6Rα-PE (clone UV4, Biolegend), IL-6ST-APC (2E1B02, Biolegend) and CD44-BV711 (IM7, Biolegend), and compared to isotype or unstained control. BrdU labelling assay (Phase-Flow™, Biolegend) was performed according to the manufacturer's protocol to quantify cell cycle fractions. After treatment cells were labelled with BrdU for 2 hours. For apoptosis assay, cells were treated with metformin for 72 hours and quantified with Annexin V (Biolegend). All assays were quantified on LSR Fortessa.

CD44 = test: Flow cytometry, cell surface CD44 in HMCLs; type: cell-based, human; details: RPMI, ANBL6, U266, MM1S, JJN3; metformin 10 mM, 72 hours
Experimental: as §4, §5

soluble IL-6Rα = details: RPMI and ANBL6, metformin 10 mM, 72 hours, ELISA
Experimental: as §4

IL-6Rα mRNA = test: IL-6Rα mRNA, qPCR TaqMan assay; type: cell-based, human; details: RPMI and ANBL6, metformin 10 mM, 72 hours
Experimental: as §4

IL-6Rα [11] = test: Flow cytometry, cell surface IL-6Rα on primary myeloma cells; type: cell-based, human; details: metformin 10 mM, 48 hours, n=11
Experimental: as §5

IL-6Rα [12] = test: Flow cytometry, IL-6Rα on Hep3B hepatocytes; type: cell-based, human; details: metformin 10 mM, 72 hours
Experimental: Human hepatocellular carcinoma cell line Hep3B was purchased from ATCC. Cells were maintained in DMEM supplemented with 10% FBS and 100 U/mL penicillin and 100 μg/mL streptomycin.
as §5, with “Fortessa. Data were analyzed using flowJo vs10.4.2 (Flowjo LLC, USA).” for “Fortessa.”

[13] = system: IL-6 induced CRP production from hepatocytes (Hep3B); details: metformin 10 mM pre-treatment 72 hours, IL-6 50 ng/ml, 48 hours
primary myeloma cells = test: MTT assay in primary myeloma cells (CD138+ enriched); details: metformin 10 mM, 48 hours
Experimental: (A) Bone marrow aspirates were enriched for multiple myeloma cells by with magnetic associated cell sorting using CD138^+ (a marker for myeloma cells). Cells were treated with metformin 10 mM or vehicle control. After 48 hours of culture, the MTT assay was performed to determine the percentage of live cells. Data is presented as relative proliferation compared to vehicle control (n=6 per sample).
CD138^+ cells from bone marrow aspirates were enriched using magnetic associated cell sorting at the Hematology Research Core (Mayo Clinic Rochester, USA). Primary myeloma cells were maintained in RPMI supplemented with 10% FBS, antibiotics and 1 ng/mL IL-6.
(3-(4,5-Dimethylthiazol-2-5-Diphenyltetrazolium Bromide (MTT) (ThermoFisher Scientific, MA, USA) was dissolved in PBS to make 12 mM stock solution. Cells were seeded at 10,000 cells in 50 μL complete medium. Drugs, cytokines and antibodies were added at indicated doses in 50 μL complete medium. HMCLs were incubated for 72 hours while primary myeloma cells were incubated for 48 hours in presence of vehicle control, metformin (1 mM, 5 mM, 10 mM, 20 mM, 40 mM and 80 mM). MTT (10 μL) was added to each well and incubated for an additional 2 hours. Lysis buffer (100 μL) was added to each well and absorbance was read at 570 nm. […] IC50 was calculated using Compusyn software.

Phenformin IC50 versus IL-6Rα expression ([1]; MTT IC50 vs flow cytometry): strongly negatively correlated
Compound: [H]/N=C(/N)N/C(=N/[H])NCCc1ccccc1 [Phenformin]

Compound: CN(C)C(=N)N=C(N)N [metformin]
IC50 (RPMI [2]): < 10 mM | IC50 (KMS12PE): < 10 mM | IC50 (JJN3): > 30 mM | Metformin IC50, ALMC2 compared to ALMC1 (ALMC1 and ALMC2): lower for ALMC2 compared to ALMC1 | survival/growth of multiple myeloma cells ([1]; 72 hours, MTT, variable levels of efficacy): inhibited survival/growth | percentage of live cells after metformin treatment (RPMI [3]): 59% | percentage of live cells after metformin treatment (U266 [4]): 67% | percentage of live cells after metformin treatment (MM1S [5]): 76% | S phase fraction after metformin treatment (RPMI [6]): 29% | S phase fraction after metformin treatment (U266 [7]): 20% | S phase fraction after metformin treatment (MM1S [8]): 23% | IC50 for metformin in RPMI IL-6Rα knock-downs compared to scramble control (RPMI IL-6Rα knock-downs): significantly increased | IC50 for metformin in JJN3 over-expressing IL-6Rα compared to wild type JJN3 [9]: significantly decreased | cell surface expression of IL-6Rα (IL-6Rα [10]): significantly and consistently reduced | CD44 expression (CD44): no significant change | soluble IL-6Rα in media (soluble IL-6Rα): decrease | IL-6Rα mRNA level (transcription) (IL-6Rα mRNA): decreased the level of IL-6Rα transcription | cell surface expression of IL-6Rα on primary myeloma cells (IL-6Rα [11]): decreased cell surface expression of IL-6Rα | IL-6Rα expression on hepatocytes (IL-6Rα [12]): expression of the receptor decreased | IL-6 induced CRP production from hepatocytes [13]: significantly inhibited | survival/proliferation of primary myeloma cells (primary myeloma cells): decreased survival/proliferation
